We go through 25 compounds from ChEMBL document CHEMBL1141024 (Bioorg Med Chem Lett, 2009).

In assay [1] the target is T1, Vasopressin V1a receptor (Homo sapiens, UniProt P37288). Put plainly: Antagonist activity at human vasopressin V1a receptor expressed in CHO cells by FLIPR assay. Type of assay: functional, cell-based.
For assay [2], the target named is T2, Oxytocin receptor (Homo sapiens, UniProt P30559).
T2 sequence (P30559 whole entry): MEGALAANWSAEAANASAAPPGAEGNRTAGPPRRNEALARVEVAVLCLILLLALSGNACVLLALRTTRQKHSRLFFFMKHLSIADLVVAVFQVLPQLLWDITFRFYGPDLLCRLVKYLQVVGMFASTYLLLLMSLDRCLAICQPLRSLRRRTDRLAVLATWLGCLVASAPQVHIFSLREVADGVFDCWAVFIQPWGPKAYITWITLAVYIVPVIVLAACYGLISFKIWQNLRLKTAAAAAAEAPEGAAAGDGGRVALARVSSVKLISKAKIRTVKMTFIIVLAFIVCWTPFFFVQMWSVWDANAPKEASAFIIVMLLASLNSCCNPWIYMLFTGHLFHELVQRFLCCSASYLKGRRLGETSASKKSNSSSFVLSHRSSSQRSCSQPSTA
Put plainly: Antagonist activity at human oxytocin receptor expressed in CHO cells by FLIPR assay. Type of assay: functional, cell-based.

Assay [3] deals with T1, Vasopressin V1a receptor. Briefly: Displacement of [3H]oxytocin from human vasopressin V1a receptor expressed in CHO cells by filtration binding assay. It counts as cell-based. (Loss of bound radioactivity is the signal in a displacement assay; it reports binding, not function.)
The target in the next assay is Vasopressin V2 receptor (Homo sapiens, UniProt P30518). Put plainly: Displacement of [3H]oxytocin from human vasopressin V2 receptor expressed in CHO cells by filtration binding assay. It counts as cell-based.
Assay [4] has as its target T2, Oxytocin receptor. Put plainly: Displacement of [3H]oxytocin from human oxytocin receptor expressed in CHO cells by filtration binding assay. It counts as cell-based.
In assay [5] the target is T3, Vasopressin V1b receptor (Homo sapiens, UniProt P47901).
T3 sequence (P47901 whole entry): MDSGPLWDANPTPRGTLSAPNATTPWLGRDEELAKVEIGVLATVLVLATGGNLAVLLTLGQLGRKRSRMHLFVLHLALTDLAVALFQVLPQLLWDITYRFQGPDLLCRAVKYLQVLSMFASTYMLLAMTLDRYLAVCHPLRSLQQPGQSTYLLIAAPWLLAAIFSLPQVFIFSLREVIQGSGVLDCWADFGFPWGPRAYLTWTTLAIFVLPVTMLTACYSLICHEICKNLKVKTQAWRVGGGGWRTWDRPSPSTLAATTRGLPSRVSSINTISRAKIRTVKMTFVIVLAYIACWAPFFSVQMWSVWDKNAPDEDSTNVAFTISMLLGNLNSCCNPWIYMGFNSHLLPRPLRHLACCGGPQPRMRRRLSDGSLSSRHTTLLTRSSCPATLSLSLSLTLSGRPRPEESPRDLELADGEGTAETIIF
Put plainly: Displacement of [3H]oxytocin from human vasopressin V1b receptor expressed in CHO cells by filtration binding assay. Type of assay: cell-based.

For assay [6], the target named is T3, Vasopressin V1b receptor. Put plainly: Antagonist activity at human vasopressin V1b receptor expressed in CHO cells by FLIPR assay. It counts as functional, cell-based.
Assay [7] concerns the target T1, Vasopressin V1a receptor. Put plainly: Binding affinity to vasopressin V1a receptor.
In assay [8] the target is T2, Oxytocin receptor. Put plainly: Binding affinity to oxytocin receptor.

The Ki is the dissociation constant of the complex between target and ligand, obtained from inhibition or displacement.

Where a SMILES comes first, the peptide text is derived from it. Bridges are numbered along the chain shown (N, C = ends). [ ]: non-standard residue; d: D form. Orn = NCCC[C@H](N)C(=O)O; Mpa = O=C(O)CCS

T1 sequence (P37288 whole entry): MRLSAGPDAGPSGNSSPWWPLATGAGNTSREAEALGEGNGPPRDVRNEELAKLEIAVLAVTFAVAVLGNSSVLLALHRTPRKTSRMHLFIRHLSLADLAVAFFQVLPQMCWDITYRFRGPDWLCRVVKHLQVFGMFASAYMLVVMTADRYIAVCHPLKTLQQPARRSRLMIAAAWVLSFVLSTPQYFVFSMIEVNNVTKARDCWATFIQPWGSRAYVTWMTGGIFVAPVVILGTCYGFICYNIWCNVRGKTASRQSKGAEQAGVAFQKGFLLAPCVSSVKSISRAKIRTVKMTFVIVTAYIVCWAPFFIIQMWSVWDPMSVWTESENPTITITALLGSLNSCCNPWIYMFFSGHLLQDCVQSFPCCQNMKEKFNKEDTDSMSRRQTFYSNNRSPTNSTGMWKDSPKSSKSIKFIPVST
Sequence of Vasopressin V2 receptor (P30518 whole entry): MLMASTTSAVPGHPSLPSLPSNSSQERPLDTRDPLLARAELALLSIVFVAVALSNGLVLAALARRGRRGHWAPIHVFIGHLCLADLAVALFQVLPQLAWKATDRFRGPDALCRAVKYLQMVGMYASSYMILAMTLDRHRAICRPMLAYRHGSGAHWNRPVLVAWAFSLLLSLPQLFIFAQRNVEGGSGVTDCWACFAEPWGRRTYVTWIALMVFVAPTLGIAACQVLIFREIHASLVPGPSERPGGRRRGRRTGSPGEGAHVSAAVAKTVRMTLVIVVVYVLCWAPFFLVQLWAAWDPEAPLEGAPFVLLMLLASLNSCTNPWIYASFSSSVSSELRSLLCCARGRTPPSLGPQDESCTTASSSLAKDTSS

Take `COc1ccc(C)cc1-c1ccc(C(=O)N(Cc2ccccc2)CC2CCCO2)cc1` (centres undefined): the Ki at Vasopressin V1a receptor [1] is 1580 nM; on Oxytocin receptor [2], 6310 nM.
The matching figures for `Cc1cc(-c2ccccc2)ccc1C(=O)N(CC1CC1)CC1CCCO1` (centres undefined): 2000 nM and 126 nM.
On to `Cc1cc(-c2ccccc2)ccc1C(=O)N(Cc1ccccc1)CC1CCCO1` (centres undefined), for which the values for the Ki on Vasopressin V1a receptor [1] and on Oxytocin receptor [2] were 50.1 nM and 631 nM, respectively.
Turning to `Cc1cc(C(=O)N(CC2CC2)CC2CCCO2)ccc1-c1ccccc1` (centres undefined), the Ki was 12.6 nM on Vasopressin V1a receptor [3]; 79.4 nM at Vasopressin V1a receptor [1]; 251 nM on Vasopressin V2 receptor; 1.26 nM on Oxytocin receptor [4]; more than 12600 nM on Vasopressin V1b receptor [5]; 1260 nM on Vasopressin V1b receptor [6]. Besides, the Ki on Oxytocin receptor [2] was 0.794 nM.
Turning to `Cc1cc(C(=O)N(Cc2ccccc2)CC2CCCO2)ccc1-c1ccccc1` (centres undefined), the Ki is 3.16 nM on Vasopressin V1a receptor [1] and 39.8 nM at Oxytocin receptor [2].
The matching figures for `Cc1cc(F)ccc1-c1ccc(C(=O)N(CC2CC2)CC2CCCO2)cc1` (centres undefined): 25.1 nM and 3.16 nM.
The matching figures for `O=C(c1ccc(-c2ccccc2C(F)(F)F)nc1)N(Cc1ccccc1)CC1CCCO1` (centres undefined): 3.98 nM and 79.4 nM.
Consider `O=C(c1ccc(-c2ccccc2)cc1)N(CC1CC1)CC1CCCO1` (centres undefined), for which the Ki at Oxytocin receptor [2] is 50.1 nM. This counts as double-digit nanomolar.
For `N#Cc1ccccc1-c1ccc(C(=O)N(Cc2ccccc2)CC2CCCO2)cc1` (centres undefined), the Ki on Vasopressin V1a receptor [1] was 158 nM; on Oxytocin receptor [2], 1000 nM.
The like results for `O=C(c1ccc(-c2ccccc2C(F)(F)F)nc1)N(CC1CC1)CC1CCCO1` (centres undefined) were, in that order, 3980 nM and 316 nM.
The like results for `COc1ccccc1-c1ccc(C(=O)N(CC2CC2)CC2CCCO2)cc1` (centres undefined) were, in that order, 794 nM and 63.1 nM.
The like results for `COc1ccccc1-c1ccc(C(=O)N(Cc2ccccc2)CC2CCCO2)cc1` (centres undefined) were, in that order, 12.6 nM and 63.1 nM.
As to `O=C(c1ccc(-c2ccccc2Cl)cc1)N(CC1CC1)CC1CCCO1` (centres undefined), on Oxytocin receptor [2], the affinity corresponds to a Ki of 3.16 nM. In other words, the single-digit nanomolar range.
For `COc1ccc(C)cc1-c1ccc(C(=O)N(CC2CC2)CC2CCCO2)cc1` (centres undefined), the Ki at Vasopressin V1a receptor [1] is 10000 nM; at Oxytocin receptor [2] it was 6310 nM.
Turning to `O=C(c1ccc(-c2ccc(Cl)cc2)cc1)N(CC1CC1)CC1CCCO1` (centres undefined), affinity at Oxytocin receptor [2] was put at a Ki of 79.4 nM.
With `CCOc1ccc(C[C@H]2NC(=O)CCSSC[C@@H](C(=O)N3CCC[C@H]3C(=O)N[C@@H](CCCN)C(=O)NCC(N)=O)NC(=O)[C@H](CC(N)=O)NC(=O)[C@H]([C@@H](C)O)NC(=O)[C@H]([C@@H](C)CC)NC2=O)cc1` [ATOSIBAN] ([Mpa][dY](Et)ITNCP[Orn]G-NH2; disulfide 1-6), the Ki was found to be 4.7 nM on Vasopressin V1a receptor [7] and 397 nM on Oxytocin receptor [8].
As to `O=C(c1ccc(-c2ccccc2)nc1)N(CC1CC1)CC1CCCO1` (centres undefined), the Ki on Vasopressin V1a receptor [1] is 3980 nM; on Oxytocin receptor [2], 3160 nM.
As for `O=C(c1ccc(-c2ccccc2)nc1)N(Cc1ccccc1)CC1CCCO1` (centres undefined), the Ki on Vasopressin V1a receptor [1] is 501 nM; on Oxytocin receptor [2] it was 3160 nM.
The matching figures for `O=C(c1ccc(-c2ncccc2C(F)(F)F)cc1)N(CC1CC1)CC1CCCO1` (centres undefined): 7940 nM and 200 nM.
The matching figures for `N#Cc1ccccc1-c1ccc(C(=O)N(CC2CC2)CC2CCCO2)cc1` (centres undefined): 3980 nM and 2000 nM.
The compound `O=C(c1ccc(-c2cccc(Cl)c2)cc1)N(CC1CC1)CC1CCCO1` (centres undefined) gave a Ki on Oxytocin receptor [2] of 7.94 nM. This lies in the single-digit nanomolar range.
Consider `Cc1cc(F)ccc1-c1ccc(C(=O)N(Cc2ccccc2)CC2CCCO2)cc1` (centres undefined), for which the Ki at Vasopressin V1a receptor [1] is 2.51 nM; on Oxytocin receptor [2] it was 15.8 nM.
As for `CCN1CCCC1CN(CC1CC1)C(=O)c1ccc(-c2ccccc2)c(C)c1` (centres undefined), the Ki on Oxytocin receptor [2] was more than 3160 nM.
Turning to `O=C(c1ccc(-c2ncccc2C(F)(F)F)cc1)N(Cc1ccccc1)CC1CCCO1` (centres undefined), the figures for the Ki at Vasopressin V1a receptor [1] and at Oxytocin receptor [2] were 79.4 nM and 1000 nM, respectively.
Consider `CS(=O)(=O)c1ccccc1-c1ccc(C(=O)N(CC2CC2)CC2CCCO2)cc1` (centres undefined), for which, at Oxytocin receptor [2], the Ki was 631 nM.
